Values of other authors, collected in US20220160704A2, “COMPOSITIONS FOR OPIATE AND OPIOID PREVENTION AND REVERSAL, AND METHODS OF THEIR USE” (Torralva Medical Therapeutics LLC, priority 2018, published 2022).
Structures can show the parent of a compound that is named as a salt. Where two headings read alike, the source gives them in different places.

Key:
[1] = cited from earlier work
[2] = cited from earlier work; remark: listed apart in the source
[3] = pH 7.4; cited from earlier work
[4] = cited from earlier work; remark: listed apart in the source
[5] = cited from earlier work; remark: listed apart in the source
[6] = 25° C.; cited from earlier work
[7] = in vivo; cited from earlier work
[8] = cited from earlier work; remark: listed apart in the source
[9] = subcutaneous injection of 10 mg; cited from earlier work
[10] = cited from earlier work; remark: listed apart in the source
α-1 1A subtype = target: T1, α-1 1A subtype (Homo sapiens, UniProt P35348); details: greater than Prazosin; cited from earlier work
T1 sequence (P35348 1-466): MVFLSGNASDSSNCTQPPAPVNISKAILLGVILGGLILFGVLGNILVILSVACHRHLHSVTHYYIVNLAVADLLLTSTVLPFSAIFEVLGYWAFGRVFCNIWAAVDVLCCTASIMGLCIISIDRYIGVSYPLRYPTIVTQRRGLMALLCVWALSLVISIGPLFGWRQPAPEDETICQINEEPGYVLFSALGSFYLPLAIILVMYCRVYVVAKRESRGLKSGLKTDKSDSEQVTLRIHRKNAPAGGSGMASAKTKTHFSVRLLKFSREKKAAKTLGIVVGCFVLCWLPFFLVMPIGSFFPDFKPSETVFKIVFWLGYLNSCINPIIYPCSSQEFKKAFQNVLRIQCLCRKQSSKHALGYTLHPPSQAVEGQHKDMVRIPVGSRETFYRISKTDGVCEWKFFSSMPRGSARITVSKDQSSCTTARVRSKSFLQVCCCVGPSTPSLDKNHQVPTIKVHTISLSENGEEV

C[C@H](Cc1cc2c(c(C(N)=O)c1)N(CCCO)CC2)NCCOc1ccccc1OCC(F)(F)F [SILODOSIN]
Solubility in ethanol / alcohol [1]: freely soluble | Solubility in acetic acid ([1]; glacial acetic acid / acetic acid): very soluble | Solubility in water [1]: very slightly soluble | Dizziness and orthostatic hypotension ([2]; 8 mg QD, study of 897 subjects): 3% | Syncope, subjects affected / subjects ([2]; 8 mg QD, study of 897 subjects): 1/897

CCOC(=O)c1ncn2c1CN(C)C(=O)c1cc(F)ccc1-2 [Flumazenil, ethyl 8-fluoro-5,6-dihydro-5-methyl-6-oxo-4H-imidazo[1,5-a](1,4) benzodiazepine-3-carboxylate]
Solubility in acidic aqueous solutions ([1]; acidic aqueous solutions): slightly soluble | Solubility in water [1]: insoluble | octanol: buffer partition coefficient [3]: 14 to 1

1 H,5 H-Tropan-3-ol (±)-tropate [Atropine]
Dose that can produce a paradoxical bradycardia ([4]; adults): less than 0.5 mg

CNC(C)C(O)c1ccccc1 (stereo not drawn) [Ephedrine, benzenemethanol α-[1-(methylamino)ethyl]-sulfate (2:1) (salt)]
Light stability ([5]; exposure to light): darkens on exposure to light

Cl.Clc1cccc(Cl)c1NC1=NCCN1 [Clondine hydrochloride, 2-(2,6-dichlorophenylamino)-2-imidazoline hydrochloride]
Maximum effective daily dose ([4]; oral): 2.4 mg

CN1CCC[C@H]1c1cccnc1 [Nicotine]
Miscibility with water ([1]; base form): miscible with water in its base form between 60 °C and 210 °C | Vapor pressure [6]: 5.5 Pa | Crossing of the blood brain barrier [7]: crosses the blood-brain barrier | Time to reach the brain ([8]; after inhalation): 10 to 20 s | Route of excretion ([8]; in vivo): primarily excreted in urine

C=CCN1CC[C@]23c4c5ccc(O)c4O[C@H]2C(=O)CC[C@@]3(O)[C@H]1C5.Cl [Naloxone hydrochloride, 17-Allyl-4,5α-epoxy-3,14-dihydroxymorphinan-6-one hydrochloride]
Solubility in chloroform ([1]; chloroform): practically insoluble | Solubility in dilute acids ([1]; dilute acids): soluble | Solubility in ethanol / alcohol [1]: slightly soluble | Solubility in ether ([1]; ether / ethyl ether): practically insoluble | Solubility in strong alkali ([1]; strong alkali): soluble | Solubility in water [1]: soluble

CC[C@@H]1C(=O)OC[C@@H]1Cc1cncn1C [pilocarpine HCl]
Salivation [9]: 1 L

C=CC[N+]1([C@H]2C[C@H]3[C@@H]4CC[C@H]5C[C@H](O)[C@@H](N6CCOCC6)C[C@]5(C)[C@H]4CC[C@]3(C)[C@H]2OC(C)=O)CCCC1.[Br-] [rocuronium bromide, 1-[17β-(acetyloxy)-3α-hydroxy-2β-(4-morpholinyl)-5α-androstan-16β-yl]-1-(2-propenyl)pyrroidinium bromide]
Time in which most patients have intubation completed ([10]; initial dose 0.6 mg/kg): ≤ 2 min | Time to maximum blockade in most patients ([10]; initial dose 0.6 mg/kg): less than 3 minutes | Time to neuromuscular block sufficient for intubation (80% block or greater), median (range) ([10]; initial dose 0.6 mg/kg): 1 (0.4-6) minute(s)

COc1cc2nc(N(C)CCCNC(=O)C3CCCO3)nc(N)c2cc1OC.Cl (racemic) [ALFUZOSIN, (R,S)—N-[3-[(4-amino-6,7-dimethoxy-2-quinazolinyl)methylamino]propyl]tetrahydro-2-furancarboxamide hydrochloride]
Solubility in dichloromethane / methylene chloride [1]: practically insoluble | Solubility in ethanol / alcohol [1]: sparingly soluble | Solubility in water [1]: freely soluble | Dizziness ([2]; human, in vivo): 6% | Hypotension ([2]; human, in vivo): 0.4% | Syncope ([2]; human, in vivo): 0.2%

COc1cc2nc(N3CCN(C(=O)C4CCCO4)CC3)nc(N)c2cc1OC (racemic) [TERAZOSIN, (RS)-Piperazine, 1-(4-amino-6,7-dimethoxy-2-quinazolinyl)-4-[(tetra-hydro-2-furanyl)carbonyl]-, monohydrochloride, dihydrate]
Solubility in isotonic saline [1]: freely soluble | Solubility in water [1]: freely soluble | Postural hypotension ([2]; trial of 600 subjects): 4% | Syncope ([2]; trial subjects): 0.6% | Half-life (in words) ([8]; in vivo): long half-life

COc1cc2nc(N3CCN(C(=O)c4ccco4)CC3)nc(N)c2cc1OC.Cl [PRAZOSIN, 1-(4-amino-6,7-dimethoxy-2-quiazolinyl)-4-(2-furoyl) piperazine]
Solubility in isotonic saline [1]: slightly soluble | Solubility in water [1]: slightly soluble | Crossing of the blood brain barrier [7]: ability to cross the blood brain barrier | Syncope and symptoms of hypotension, share of subjects ([2]; 1 mg BID/TID up to 20 mg total QD): 6-12%

COc1cc2nc(N3CCN(C(=O)C4COc5ccccc5O4)CC3)nc(N)c2cc1OC (centres unmarked) [DOXAZOSIN, 1-(4-amino-6,7-dimethoxy-2-quinazolinyl)-4-(1,4benzodioxan-2-ylcarbonyl) piperazine methanesulfonate]
Solubility in acetone ([1]; acetone): very slightly soluble | Solubility in dichloromethane / methylene chloride [1]: very slightly soluble | Solubility in dimethylformamide ([1]; dimethylformamide): soluble | Solubility in dimethylsulfoxide ([1]; dimethylsulfoxide): freely soluble | Solubility in ethanol / alcohol [1]: slightly soluble | Solubility in methanol ([1]; methanol): slightly soluble | Solubility in water ([1]; 25° C.): 0.8% | Solubility in water [1]: slightly soluble | Half-life (in words) ([8]; in vivo): long half-life

CCOc1ccccc1OCCN[C@H](C)Cc1ccc(OC)c(S(N)(=O)=O)c1.Cl [Tamsulosin hydrochloride, (−)-(R)-5-[2-[[2-(o-Ethoxyphenoxy)ethyl]amino]propyl]-2-methoxybenzenesulfon-amide, monohydrochloride]
Crossing of the blood brain barrier [7]: ability to cross the blood brain barrier | Incidence of hypotension, syncope, vertigo ([2]; Dose 0.4-0.8 mg QD): 0.2%-0.6% | Binding affinity at the 1A subtype over other α-1 antagonists (α-1 1A subtype): 12-30 times | Half-life (in words) ([8]; in vivo): long half-life

C[N+](C)(C)CCOC(=O)CCC(=O)OCC[N+](C)(C)C [Succinylcholine]
Storage stability of solutions ([5]; refrigeration): lose potency unless refrigerated | Bradycardia ([4]; human, in vivo): bradycardia is common in pediatric patients after an initial dose of 1.5 mg/kg | Persistence of maximum blockade ([10]; 0.3-1.1 mg/kg): about 2 minutes | Time to recovery after maximum blockade ([10]; 0.3-1.1 mg/kg): 4 to 6 min | Time until neuromuscular blockade develops ([10]; 0.3-1.1 mg/kg): about 1 minute | Onset of effect given intramuscularly ([10]; intramuscular, up to 3 to 4 mg/kg): 2 to 3 min

O=C1CC[C@@]2(O)[C@H]3Cc4ccc(O)c5c4[C@@]2(CCN3CC2CC2)[C@H]1O5 [Naltrexone base anhydrous, morphinan-6-one, 17 (cyclopropylmethyl) 4,5-epoxy3,14-dihydroxy-(5a)]
Solubility in ethanol / alcohol [1]: soluble | Solubility in water [1]: insoluble
